Reference: patent US3968251A, “Arylacetylene compounds as antithrombotic agents” (Eli Lilly and Company, priority 1975, dated 1976)
Like-named read-outs stand apart in the source and are kept apart here.

Test system: collagen-induced platelet aggregation
Assay: collagen-induced platelet aggregation after oral dosing (method of Herrmann, et al., 139, 548 (1972))
Type: in vivo, Guinea pig
Settings: for inhibition at 25 mg/kg: Cavia porcellus, Platelet, po, oral 25 mg/kg, guinea pig, read-out: Percent Inhibition of Collagen-Induced Platelet Aggregation
Procedure: Exp. Biol. Med., 139, 548 (1972).
The effect of (2'-fluoro-4-biphenyl)acetylene on collagen-induced platelet aggregation was tested by the method of Hermann, et al., Proc. Soc. Exp. Biol. Med., 139, 548 (1972). Guinea pigs weighing 300-400 g, were used. The compound was administered by oral dosing. At time intervals after dosing, blood samples were obtained for assessing platelet function. The collagen used to induce platelet aggregation was prepared from a stock solution obtained by solubilizing Sigma bovine Achilles Tendon with acetic acid. […] Each day 0.4 ml of 1 M aqueous hydroxide was added to a 1.0-ml aliquot of the stock solution, followed by further dilution with saline to yield the appropriate dilutions for use.

## C#Cc1ccc(-c2ccccc2F)cc1 [(2'-fluoro-4-biphenyl)acetylene]
20 hours after oral dosing
  duration of activity (in words): activity still was observed 20 hours after dosing, indicating a long duration of activity
1.5 h, 90 min. after dosing, collagen dilution 1:4
  inhibition at 25 mg/kg: 13%
1.5 h, 90 min. after dosing, collagen dilution 1:16, significant at P=0.05
  inhibition at 25 mg/kg: 35%
1.5 h, 90 min. after dosing, collagen dilution 1:32, significant at P=0.01
  inhibition at 25 mg/kg: 81%
3 h, 3 hrs. after dosing, collagen dilution 1:4, significant at P=0.01
  inhibition at 25 mg/kg: 44%
3 h, 3 hrs. after dosing, collagen dilution 1:16, significant at P=0.01
  inhibition at 25 mg/kg: 69%
3 h, 3 hrs. after dosing, collagen dilution 1:32, significant at P=0.01
  inhibition at 25 mg/kg: 86%
6 h, 6 hrs. after dosing, collagen dilution 1:4
  inhibition at 25 mg/kg: 16%
6 h, 6 hrs. after dosing, collagen dilution 1:16, significant at P=0.05
  inhibition at 25 mg/kg: 42%
6 h, 6 hrs. after dosing, collagen dilution 1:32, significant at P=0.01
  inhibition at 25 mg/kg: 49%
20 h, 20 hrs. after dosing, collagen dilution 1:4
  inhibition at 25 mg/kg: 18%
20 h, 20 hrs. after dosing, collagen dilution 1:16, significant at P=0.01
  inhibition at 25 mg/kg: 62%
20 h, 20 hrs. after dosing, collagen dilution 1:32, significant at P=0.01
  inhibition at 25 mg/kg: 95%
After oral dosing
  inhibition of collagen-induced platelet aggregation (in words): active inhibitor of collagen-induced platelet aggregation
Highest collagen concentration, after oral dosing
  inhibition at highest collagen concentration (in words): inhibited only at three hours after dosing
Weakest collagen challenge, after oral dosing
  inhibition of weakest collagen challenge (in words): markedly inhibited at all time intervals after oral dosing
